Assay results from patent US20230264009A1, “DISINFECTING CAP KIT FOR LUER ACCESS DEVICES” (SterileCare Inc., priority 2022, published 2023).

Experiments:
[1] = test system: C. albicans ON47 biofilm; assay: MBEC Assay, 48-h biofilm, 24 h exposure; assay type: cell-based, Candida albicans
Procedure: A biofilm cultivation cell composition was provided. This fifth composition was created using an MBEC Assay® biofilm inoculator, consisting of a polystyrene lid with 96 downward-protruding pegs and a corresponding base used to grow biofilms. A standardized inoculum was diluted in an appropriate biofilm growth medium to achieve a viable cell count of 1.5 × 10^6 CFU/mL of bacterial cells or […] CFU/mL of fungal cells. Then, 150 µL of this inoculum was transferred into each appropriate well, and the peg lids were inserted into the microtiter plates. The plates were sealed with Parafilm and were incubated at optimum temperature for 48 h with slight rocking for bacteria and shaking at 200 rpm for fungal strains. After incubation, the peg lid was removed from the base and rinsed twice with sterile phosphate-buffered saline (PBS) for 2 min to remove loosely attached non-sessile cells. Before the antimicrobial challenge, the pegs in column 1 (n = 8) were considered the biofilm growth control; these pegs were removed from the lids, placed into 200 µL of recovery medium, and analyzed for starting biofilm cell numbers as described below. […] MBEC values were determined as the minimum concentration of antimicrobials that yielded a viable cell count at or lower than the 125 CFU/mL detection limit.

[2] = test system: 48-h-old biofilms of bacterial and fungal strains; assay: MBEC Assay, 24 h exposure (summary); assay type: cell-based; settings: following 24 h of treatment
Procedure: A biofilm cultivation cell composition was provided. This fifth composition was created using an MBEC Assay® biofilm inoculator, consisting of a polystyrene lid with 96 downward-protruding pegs and a corresponding base used to grow biofilms. A standardized inoculum was diluted in an appropriate biofilm growth medium to achieve a viable cell count of 1.5 × 10^6 CFU/mL of bacterial cells or […] CFU/mL of fungal cells. Then, 150 µL of this inoculum was transferred into each appropriate well, and the peg lids were inserted into the microtiter plates. The plates were sealed with Parafilm and were incubated at optimum temperature for 48 h with slight rocking for bacteria and shaking at 200 rpm for fungal strains. After incubation, the peg lid was removed from the base and rinsed twice with sterile phosphate-buffered saline (PBS) for 2 min to remove loosely attached non-sessile cells. Before the antimicrobial challenge, the pegs in column 1 (n = 8) were considered the biofilm growth control; these pegs were removed from the lids, placed into 200 µL of recovery medium, and analyzed for starting biofilm cell numbers as described below. […] After the antimicrobial challenge, the pegs were rinsed twice with sterile PBS for 2 min and placed into a new 96-well plate containing 200 µL of recovery medium. The recovery plates were sealed with Parafilm, and biofilm cells were dislodged from the pegs by sonication for 30 min with a Branson 3510 bath sonicator. The biofilm cells in the recovery medium were serially diluted, and a drop dilution assay was performed to enumerate the viable cells. MBEC values were determined as the minimum concentration of antimicrobials that yielded a viable cell count at or lower than the 125 CFU/mL detection limit.

[3] = test system: Staphylococcus epidermidis ON170; assay: Checkerboard titration, FMCI; assay type: cell-based; settings: S. epidermidis ON170
Procedure: (§1) An assay was made using a minimum inhibitory concentration (MIC) and minimum bactericidal concentration (MBC) and minimum fungicidal concentration (MFC) determination. The MIC was determined by the micro broth dilution method in 96-well plates. Serial two-fold dilutions of tetrasodium EDTA (from 2% to 0.015%), ethanol (from 50% to 0.1%) and chlorhexidine HCl (from 100 µg/mL to 0.025 µg/mL) were prepared in MH broth with a final volume of 90 µL per well. A 10 µL containing 1 × 10^5 bacterial cells or 2 × 10^3 fungal cells were added to each well. The inoculated plates were covered with a lid, sealed with Parafilm, and incubated for 24 h at 37° C. with slight rocking on a tilting platform shaker. After incubation, the optical density at 600 nm (OD 600 ) of the cultures in each well was measured using an xMark™ Microplate Absorbance Spectrophotometer (Bio-Rad). […] MBCs and MFCs were determined by transferring 100 µL from each well with no apparent growth onto appropriate agar plates, followed by incubation for 24 h at 37° C.
(§2) A fourth composition and solution included tetrasodium EDTA with ethanol or chlorhexidine HCl. This fourth composition and solution were created using checkerboard titration methods using micro broth dilution in 96-well microtiter plates. The concentrations of antimicrobials used were based on previously determined MIC values. Briefly, 200 µL of two-fold dilutions of tetrasodium EDTA and ethanol or chlorhexidine HCl were prepared in MH or MH II broth with standardized cell suspension. […] Microtiter plates were incubated at 37° C. for 24 h, and the results were analyzed. Each test was performed in duplicate and included a growth control without adding any antimicrobials.

[4] = test system: Staphylococcus aureus ON89; assay: Checkerboard titration, FMCI; assay type: cell-based; settings: S. aureus ON89
Procedure: as §1, §2

[5] = test system: C. albicans ON47; assay: MBC/MFC determination; assay type: cell-based, Candida albicans; settings: alone
Procedure: as §1

[6] = test system: Staphylococcus epidermidis SK9 biofilm; assay: FBEC index, checkerboard dilution on biofilms; assay type: cell-based; settings: S. epidermidis SK9 biofilm
Procedure: In step (4), microtiter plates are incubated at 37° C. for 24 h. then (6), after incubation, the bacterial and fungal cells were dislodged from the pegs into the recovery medium described above.
Three 10-µL aliquots, for a total of 30 µL from each well of recovery medium, were spotted on MH agar plates and incubated for 24 h at 37° C. […] The FBEC determination is a modification of the FICI.

[7] = test system: Escherichia coli ON29; assay: MBC/MFC determination; assay type: cell-based; settings: alone; E. coli ON29
Procedure: as §1

[8] = test system: Serratia marcescens SK2; assay: MBC/MFC determination; assay type: cell-based; settings: alone; S. marcescens SK2
Procedure: as §1

[9] = test system: Proteus mirabilis ON153; assay: MBC/MFC determination; assay type: cell-based; settings: alone; P. mirabilis ON153
Procedure: as §1

[10] = test system: Staphylococcus epidermidis ON170; assay: MBC/MFC determination; assay type: cell-based; settings: alone; S. epidermidis ON170
Procedure: as §1

[11] = test system: Candida albicans SK4b; assay: MBC/MFC determination; assay type: cell-based; settings: alone; C. albicans SK4b
Procedure: as §1

[12] = test system: Pseudomonas aeruginosa SK1; assay: MBC/MFC determination; assay type: cell-based; settings: alone; P. aeruginosa SK1
Procedure: as §1

[13] = test system: Staphylococcus aureus ON89; assay: MBC/MFC determination; assay type: cell-based; settings: alone; S. aureus ON89
Procedure: as §1

[14] = test system: Stenotrophomonas maltophilia ON17; assay: MBC/MFC determination; assay type: cell-based; settings: alone; S. maltophilia ON17
Procedure: as §1

[15] = tetrasodium EDTA + chlorhexidine HCl

For `O=C([O-])CN(CCN(CC(=O)[O-])CC(=O)[O-])CC(=O)[O-].[Na+].[Na+].[Na+].[Na+]` [EDTA, tetrasodium EDTA], the MBEC [1] was 1 % w/v, the “Concentration alone able to eradicate all established biofilms” value [2] was 4% and the “Concentration in combination giving FMCI” value [3, 15] was 0.25 % w/v. The “Concentration in combination giving FMCI” value ([3]; tetrasodium EDTA + ethanol) was 0.031 % w/v, the “Concentration in combination giving FMCI” value [4, 15] was 0.008 % w/v and the “Concentration in combination giving FMCI” value ([4]; tetrasodium EDTA + ethanol) was 0.25 % w/v. For the same compound, the MBC/MFC [5] was 1 % w/v, the “FBEC (concentration in combination)” value [6, 15] was 0.125 % w/v and the “FBEC (concentration in combination)” value ([6]; tetrasodium EDTA + ethanol) was 0.031 % w/v. The MBC/MFC [7] was 1 % w/v, the MBC/MFC [8] was 2 % w/v and the MBC/MFC [9] was 2 % w/v. It also gave an MBC/MFC [10] of 0.5 % w/v, an MBC/MFC [11] of 1 % w/v and an MBC/MFC [12] of 1 % w/v. The MBC/MFC [13] was 1 % w/v and the MBC/MFC [14] was 1 % w/v.
